# Results reported in patent publication US5990317A, “2-(1H-4(5)-imidazoyl) cyclopropyl compounds” (Gliatech, Inc., priority 1998, dated 1999).
# Where a name gives a salt, the structure may show the parent alone. Read-outs that look alike come from different tables or passages of the source.
# Experiments:
# arousal EEG pattern = details: intraventricular, rabbits; cited from earlier work
# [1] = test system: spontaneous locomotor activity, grooming and exploratory behavior; details: intraventricular, saline and pentobarbital-treated rats; cited from earlier work
# Histamine H3 receptor = assay: In Vitro Histamine H3 Receptor Binding Analysis ([3H]-N-alpha-methylhistamine displacement, rat cortical membranes); details: [3H]-N-alpha-methylhistamine 0.8-1.2 nM, pH 7.4, 40 min, 25° C, read-out: Histamine H3 Receptor Binding Affinities, H3 Receptor Ki
# Experimental: Histamine H3 receptor affinity was determined in rat cortical membranes using the H3 selective agonist ligand, [^3 H]-N^α -methylhistamine (78.9 Ci/mole, DuPont NEN Research Products, Boston, Mass.) according to the method of West et al., (1990) Mol. Pharmacol. 38: 610-613 with modifications. Briefly, animals were sacrificed by decapitation and the cerebral cortex was rapidly removed. Rat cortices were mechanically homogenized with an Omni 1000 motor driven homogenizer in 10 volumes (wt/vol) of Krebs-Ringers Hepes buffer (pH 7.4) containing the following protease inhibitors: EDTA (10 mM), PMSF (0.1 mM), chymostatin (0.2 mg/50 mL) and leupeptin (0.2 mg/50 mL). The homogenate was centrifuged in a Sorvall at ~40,000×g for 30 min. The pellet was resuspended by mechanical homogenization in 25 mL water and lysed on ice for 30 min. The homogenate was recentrifuged and the membrane lysis was repeated. The membranes were recentrifuged and the final pellet was resuspended in 14 volumes of water to give approximately 200 μg protein/100 μl final concentration. The suspension was stored at -80° prior to use. Protein concentrations were determined by Coomassie Plus Protein Assay (Pierce, Rockford, Ill.).
# Nonspecific binding (NSB) was accounted for by the inclusion of thioperamide (10 μM). Samples were incubated for 40 minutes at 25° C. The samples were filtered through glass fiber strips, pre-washed with 0.3% polyethyleneimine, using a Brandell cell harvester. The filters were rapidly washed three times with 4 ml of 25 mm Tris buffer containing 145 mM NaCl (pH 7.4, 4° C.). Filters were transferred to polyethylene mini-vials and counted in 3.5 ml of scintillation fluid (Ecolume, ICN Biomedicals, Inc.). […] Saturation and competition experiments were analyzed with the ReceptorFit saturation and competition curve fitting programs (Lundon Software, Ind., Cleveland, Ohio).
# H3 receptor [2] = details: cat; cited from earlier work
# H3 receptor [3] = details: rats; cited from earlier work
# histamine = details: in vivo; cited from earlier work
# [4] = test system: electrically-induced convulsions; details: cited from earlier work
compound,measurement,setting,value
NCCc1c[nH]cn1 [histamine],arousal EEG pattern,arousal EEG pattern,induces the appearances of an arousal EEG pattern
same,"spontaneous locomotor activity, grooming, and exploratory behavior",[1],"increased spontaneous locomotor activity, grooming and exploratory behavior"
"C(=CC1CC1c1c[nH]cn1)CCC1CCCCC1 [Example 24, (1S,2S)-trans-4-(2-(4-cyclohexylbut-cis-1-enyl)cyclopropyl)imidazole]",Ki,Histamine H3 receptor,108 ± 3.9 nM
"C(=CC1CC1c1c[nH]cn1)CCC1CCCCC1 [Example 22, (1R,2R)-trans--4-(2-(4-cyclohexylbut-trans-1-enyl)cyclopropyl)imidazole]",Ki,Histamine H3 receptor,2.4 ± 0.2 nM
"O=C(NCC1CC1)[C@@H]1C[C@H]1c1c[nH]cn1 (relative stereo) [Example 32, (±)-trans-N-(cyclopropylmethyl)(2-imidazol-4-ylcyclopropyl)formamide]",Ki,Histamine H3 receptor,876 ± 158 nM
"OC(CCCC1CCCCC1)[C@@H]1C[C@H]1c1c[nH]cn1 (mixture of isomers) [Example 19, (±)-trans-4-cyclohexyl-1-(2-imidazol-4-ylcyclopropyl)butan-1-ol]",Ki,Histamine H3 receptor,160 ± 9 nM
"O=C(NCc1ccccc1)[C@@H]1C[C@H]1c1c[nH]cn1 (relative stereo) [Example 1, N-(1-Benzyl)-3-[(1H-imidazol-4-yl)]-(2R,3R)-trans-cyclopropanamide and N-(1-Benzyl)-3-[(1H-imidazol-4-yl)]-(2S,3S)-trans-cyclopropanamide hydrochloride]",Ki,Histamine H3 receptor,53 ± 2 nM
"O=C(NCCCc1ccccc1)[C@@H]1C[C@H]1c1c[nH]cn1 (relative stereo) [Example 33, (±)-trans-(2-imidazol-4-ylcyclopropyl)-N-(3-phenylpropyl)formamide]",Ki,Histamine H3 receptor,197 ± 23 nM
S=C(NC1CCCCC1)N1CCC(c2cnc[nH]2)CC1 [thioperamide],wakefulness,H3 receptor [2],enhanced wakefulness in a dose-dependent fashion
same,slow wave and REM sleep,H3 receptor [3],decrease slow wave and REM sleep
same,wakefulness,H3 receptor [3],increase wakefulness
same,synthesis and release of histamine,histamine,increase in synthesis and release of histamine
same,durations of every convulsive phase,[4]; electrically-induced convulsions,significantly and dose-dependently decrease the durations of every convulsive phase
same,electroconvulsive threshold,[4]; in vivo,increase the electroconvulsive threshold
O=C(NCC1CCCCC1)[C@H]1C[C@@H]1c1c[nH]cn1 [Example 2a],Ki,Histamine H3 receptor,23 ± 1 nM
